MIC data for five compounds are collected here from patent US7713965B2, “7-substituted 3-carboxy-oxadiazino-quinolone derivatives, their preparation and their application as anti-bacterials” (Vetoquinol SA, priority 2008, dated 2010).

Converted amounts (≈) assume the structure as drawn. Some results are limits rather than exact numbers.

What all share (format): cell-based
The test system of one test is E. faecalis ATCC 29212. Put plainly: MIC determination by microdilution in liquid medium, E. faecalis ATCC 29212. The conditions noted are these: Enterococcus faecalis, ATCC29212, read-out: MIC E. fae-calis ATCC 29212.
In a further test the test system is Escherichia coli. Briefly: MIC determination by microdilution in liquid medium, E coli. A general note: Dilution methods test growth across graded concentrations, often in twofold steps.
Test [1] has as its system Staphylococcus aureus (s = susceptible). Put plainly: MIC determination by microdilution in liquid medium, Sta aur s. The conditions noted are these: susceptible strain.
Test [2] concerns Mannheimia haemolytica (r = resistant). Put plainly: MIC determination by microdilution in liquid medium, Man hae r. The conditions noted are these: resistant strain.
Test [3] concerns Pseudomonas aeruginosa (r = resistant). Briefly: MIC determination by microdilution in liquid medium, Pse aer r. The following applies: read-out: MIC Pse aer r.
For the next test, the system named is Streptococcus uberis. Briefly: MIC determination by microdilution in liquid medium, Str ube.
Test [4] relates to Mannheimia haemolytica (s = susceptible). Put plainly: MIC determination by microdilution in liquid medium, Man hae s. The following applies: susceptible strain.
A further test deals with Mycoplasma bovis. Briefly: MIC determination by microdilution in liquid medium, Myc bov. The following applies: Mycoplasmopsis bovis.
In test [5] the test system is Bordetella bronchiseptica. Put plainly: MIC determination by microdilution in liquid medium, Bor bron.
The next test relates to E. coli ATCC 25922. Put plainly: MIC determination by microdilution in liquid medium, E. coli ATCC 25922. The following applies: Escherichia coli, ATCC25922.
The next test has as its system Clostridium perfringens. Briefly: microbe, parasite or virus in culture. The conditions noted are these: read-out: MIC Clo per.
A further test has as its system M. bovirhinis. Put plainly: MIC determination by microdilution in liquid medium, M. bovirhinis. The conditions noted are these: Mycoplasma.
Test [6] concerns Staphylococcus aureus (r = resistant). Put plainly: MIC determination by microdilution in liquid medium, Sta aur r. The following applies: read-out: MIC Sta aur r.
Test [7] has as its system Pseudomonas aeruginosa (s = susceptible). Put plainly: MIC determination by microdilution in liquid medium, Pse aer s. The conditions noted are these: susceptible strain.

As for `CN1COc2c(N3CCC(NC(=O)C(F)(F)F)C3)c(F)cc3c(=O)c(C(=O)O)cn1c23` (stereo not shown) [Example 27, 8-Fluoro-3-methyl-6-oxo-9-[3-(2,2,2-trifluoro-acetylamino)-pyrrolidin-1-yl]-2,3-dihydro-6H-1-oxa-3,3a-diaza-phenalene-5-carboxylic acid], the MIC amounted to 2 µg/mL (≈ 4.5 µM) with E. faecalis ATCC 29212; 0.03 µg/mL (≈ 0.0675 µM) against Escherichia coli; 0.12 µg/mL (≈ 0.27 µM) in test [1]; 4 µg/mL (≈ 9 µM) in test [2]; 2 µg/mL (≈ 4.5 µM) in test [3]; 0.25 µg/mL (≈ 0.563 µM) with Streptococcus uberis. In addition, the MIC in test [4] amounted to 0.008 µg/mL (≈ 0.018 µM); against Mycoplasma bovis, 1 µg/mL (≈ 2.25 µM); in [5], 2 µg/mL (≈ 4.5 µM); against E. coli ATCC 25922 it was 0.03 µg/mL (≈ 0.0675 µM); in the test with Clostridium perfringens, 0.25 µg/mL (≈ 0.563 µM); in the test with M. bovirhinis, 1 µg/mL (≈ 2.25 µM). Moreover, the MIC came out at 8 µg/mL (≈ 18 µM) in [6] and 0.06 µg/mL (≈ 0.135 µM) in test [7].

As for `CN1COc2c(N3CC[C@@H](NC(=O)C(F)(F)F)C3)c(F)cc3c(=O)c(C(=O)O)cn1c23` [Example 29, 8-Fluoro-3-methyl-6-oxo-9-[(R)-3-(2,2,2-trifluoro-acetylamino)-pyrrolidin-1-yl]-2,3-dihydro-6H-1-oxa-3,3a-diaza-phenalene-5-carboxylic acid], the MIC is 1 to 2 µg/mL (≈ 2.25 to 4.5 µM) with E. faecalis ATCC 29212; 0.06 µg/mL (≈ 0.135 µM) with Escherichia coli; 0.12 µg/mL (≈ 0.27 µM) in test [1]; 8 µg/mL (≈ 18 µM) in [2]; 4 µg/mL (≈ 9 µM) in test [3]; 0.5 µg/mL (≈ 1.13 µM) against Streptococcus uberis. Moreover, the MIC in test [4] is 0.03 µg/mL (≈ 0.0675 µM); with Mycoplasma bovis, 0.5 µg/mL (≈ 1.13 µM); in test [5], > 1 µg/mL; with E. coli ATCC 25922 it was 0.06 µg/mL (≈ 0.135 µM); in the test on Clostridium perfringens it was 0.25 µg/mL (≈ 0.563 µM); in the test with M. bovirhinis, 1 µg/mL (≈ 2.25 µM). Also, the MIC in test [6] amounted to 8 µg/mL (≈ 18 µM); in test [7], 0.25 µg/mL (≈ 0.563 µM).

For the compound `CN1COc2c(N3C[C@@H](N)C(C)(C)C3)c(F)cc3c(=O)c(C(=O)O)cn1c23` [Example 34, 9-((S)-4-Amino-3,3-dimethyl-pyrrolidin-1-yl)-8-fluoro-3-methyl-6-oxo-2,3-dihydro-6H-1-oxa-3,3a-diaza-phenalene-5-carboxylic acid], the MIC in the test with E. faecalis ATCC 29212 is 0.25 to 0.5 µg/mL (≈ 0.664 to 1.33 µM); against Escherichia coli it was 0.03 µg/mL (≈ 0.0797 µM); in test [1], < 0.03 µg/mL; in test [2], 8 µg/mL (≈ 21.3 µM); in test [3] it was 8 µg/mL (≈ 21.3 µM); in the test on Streptococcus uberis, 0.12 µg/mL (≈ 0.319 µM). Further, the MIC in test [4] was 0.03 µg/mL (≈ 0.0797 µM); against Mycoplasma bovis it was 0.5 µg/mL (≈ 1.33 µM); in test [5], 0.5 µg/mL (≈ 1.33 µM); against E. coli ATCC 25922 it was 0.03 µg/mL (≈ 0.0797 µM); in the test with Clostridium perfringens it was < 0.03 µg/mL; in the test on M. bovirhinis it was 0.12 µg/mL (≈ 0.319 µM). Also, the values for the MIC in test [6] and in test [7] were 2 µg/mL (≈ 5.31 µM) and 0.5 µg/mL (≈ 1.33 µM), respectively.

In the case of `CN1COc2c(N3CCC(C(O)c4nccs4)C3)c(F)cc3c(=O)c(C(=O)O)cn1c23` (stereo not shown) [Example 38, 8-Fluoro-9-[3-(hydroxy-thiazol-2-yl-methyl)-pyrrolidin-1-yl]-3-methyl-6-oxo-2,3-dihydro-6H-1-oxa-3,3a-diaza-phenalene-5-carboxylic acid], the MIC was 0.06 µg/mL (≈ 0.134 µM) with E. faecalis ATCC 29212; 0.12 µg/mL (≈ 0.269 µM) against Escherichia coli; 0.06 µg/mL (≈ 0.134 µM) in test [1]; 16 µg/mL (≈ 35.8 µM) in [2]; 32 µg/mL (≈ 71.7 µM) in test [3]; < 0.03 µg/mL with Streptococcus uberis. In addition, the MIC is 0.03 µg/mL (≈ 0.0672 µM) in test [4]; 0.12 µg/mL (≈ 0.269 µM) in the test with Mycoplasma bovis; 1 µg/mL (≈ 2.24 µM) in [5]; 0.12 µg/mL (≈ 0.269 µM) in the test with E. coli ATCC 25922; < 0.03 µg/mL in the test with Clostridium perfringens; 0.25 µg/mL (≈ 0.56 µM) against M. bovirhinis. The MIC worked out at 2 µg/mL (≈ 4.48 µM) in test [6] and 4 µg/mL (≈ 8.96 µM) in [7].

Regarding `CN1COc2c(N3CCC(C(N)c4nccs4)C3)c(F)cc3c(=O)c(C(=O)O)cn1c23` (stereo not shown) [Example 39, 9-[3-(Amino-thiazol-2-yl-methyl)-pyrrolidin-1-yl]-8-fluoro-3-methyl-6-oxo-2,3-dihydro-6H-1-oxa-3,3a-diaza-phenalene-5-carboxylic acid], the MIC in the test with E. faecalis ATCC 29212 is 0.12 µg/mL (≈ 0.269 µM); with Escherichia coli it was 0.25 µg/mL (≈ 0.561 µM); in test [1], ≤ 0.03 µg/mL; in [2], 16 µg/mL (≈ 35.9 µM); in [3], 16 µg/mL (≈ 35.9 µM); with Streptococcus uberis, 0.12 µg/mL (≈ 0.269 µM). Moreover, the MIC in test [4] was 0.03 µg/mL (≈ 0.0673 µM); in the test on Mycoplasma bovis, 0.12 µg/mL (≈ 0.269 µM); in test [5], 0.5 µg/mL (≈ 1.12 µM); in the test with E. coli ATCC 25922, 0.03 to 0.12 µg/mL (≈ 0.0673 to 0.269 µM); with Clostridium perfringens, ≤ 0.03 µg/mL; against M. bovirhinis, 0.06 µg/mL (≈ 0.135 µM). For the same compound, the MIC in test [6] and in test [7] was 2 µg/mL (≈ 4.49 µM) in each case.
